Legend:
barnyardgrass [1] = test: Test B pre-/postemergence herbicide test; assay type: in vivo, Echinochloa crus-galli; settings: for Barnyardgrass plant response rating: postemergence, visual rating, scale 0 (no effect) to 100 (complete control)
Outline: (§1)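 Plants compared with untreated controls 13–15 days post-treatment and given a visual 0–100 injury score. Applications: preemergence to seeds; postemergence at 1- to 4-leaf (2–18 cm); paddy species flooded, 2-leaf stage. Vehicle non-phytotoxic, surfactant included.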

Surinam grass = test: Test B pre-/postemergence herbicide test; assay type: in vivo, Urochloa decumbens; settings: for Surinam Grass plant response rating: postemergence, visual rating, scale 0 (no effect) to 100 (complete control)
Outline: (§2)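 Pre: seeds sown, then sprayed. Post: 1–4-leaf plants (2–18 cm) sprayed at the same time. Paddy: flooded, treated at 2-leaf stage. Formulation: non-phytotoxic solvent with surfactant. Greenhouse 13–15 days; visual 0–100 score relative to controls.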

cocklebur = test: Test B pre-/postemergence herbicide test; assay type: in vivo, Xanthium strumarium; settings: for Cocklebur plant response rating: postemergence, visual rating, scale 0 (no effect) to 100 (complete control)
Outline: as §1

corn = test: Test B pre-/postemergence herbicide test; assay type: in vivo, Zea mays; settings: for Corn plant response rating: postemergence, visual rating, scale 0 (no effect) to 100 (complete control)
Outline: as §2

large crabgrass = test: Test B pre-/postemergence herbicide test; assay type: in vivo, Digitaria sanguinalis; settings: for Crabgrass, Large plant response rating: postemergence, visual rating, scale 0 (no effect) to 100 (complete control)
Outline: as §2

giant foxtail = test: Test B pre-/postemergence herbicide test; assay type: in vivo, Setaria faberi; settings: for Foxtail, Giant plant response rating: postemergence, visual rating, scale 0 (no effect) to 100 (complete control)
Outline: as §2

lambsquarters = test: Test B pre-/postemergence herbicide test; assay type: in vivo, Chenopodium album; settings: for Lambsquarters plant response rating: postemergence, visual rating, scale 0 (no effect) to 100 (complete control)
Outline: as §2

morningglory = test: Test B pre-/postemergence herbicide test; assay type: in vivo, Ipomoea coccinea; settings: for Morningglory plant response rating: postemergence, visual rating, scale 0 (no effect) to 100 (complete control)
Outline: as §1

pigweed = test: Test B pre-/postemergence herbicide test; assay type: in vivo, Amaranthus retroflexus; settings: for Pigweed plant response rating: postemergence, visual rating, scale 0 (no effect) to 100 (complete control)
Outline: as §2

rice [2] = test: Test B pre-/postemergence herbicide test; assay type: in vivo, Oryza sativa; settings: preemergence
Outline: as §2

velvetleaf = test: Test B pre-/postemergence herbicide test; assay type: in vivo, Abutilon theophrasti; settings: for Velvetleaf plant response rating: postemergence, visual rating, scale 0 (no effect) to 100 (complete control)
Outline: as §2

blackgrass = test: Test B postemergence herbicide test; assay type: in vivo, Alopecurus myosuroides; settings: postemergence, visual rating, scale 0 (no effect) to 100 (complete control)
Outline: (§3)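 Formulated test chemicals went onto postemergence plants measuring 2 to 18 cm, at one to four leaves. For the paddy assay, species had reached two leaves. Scoring took place 13–15 days later by eye, relative to untreated plants, using 0 for no effect up to 100 for full control.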

wheat = test: Test B postemergence herbicide test; assay type: in vivo, Triticum aestivum; design: key to Wheat plant response rating: 0 = no effect, 100 = complete control; settings: postemergence, visual rating, scale 0 (no effect) to 100 (complete control)
Outline: (§4)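 After treating 2-leaf paddy plants or 2–18 cm postemergence plants (1 to 4 leaves) with formulated chemical, researchers kept them in a greenhouse for 13–15 days. Effects were judged visually versus controls: 0 indicates none, 100 total control.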

wild oat = test: Test B postemergence herbicide test; assay type: in vivo, Avena fatua; settings: postemergence, visual rating, scale 0 (no effect) to 100 (complete control)
Outline: as §4

rice [3] = test: Test B flooded paddy test; assay type: in vivo, Oryza sativa; settings: 1000 g ai/ha, visual rating, scale 0 to 100 (0 no effect, 100 complete control), 13 to 15 days
Outline: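 Plants grow to 1- to 4-leaf stage (2–18 cm) for postemergence spraying, or to 2-leaf stage for the paddy test. Formulated compound is applied. Greenhouse holding lasts 13–15 days. Response is scored visually relative to controls, 0 no effect to 100 complete control; a dash means no result.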

[4] = system: small flower umbrella sedge; test: Test B flooded paddy test; assay type: in vivo, Cyperus difformis; settings: 1000 g ai/ha, visual rating, scale 0 to 100 (0 no effect, 100 complete control), 13 to 15 days
Outline: as §3

ducksalad [5] = test: Test B flooded paddy test; assay type: in vivo, Heteranthera limosa; settings: 1000 g ai/ha, visual rating, scale 0 to 100 (0 no effect, 100 complete control), 13 to 15 days
Outline: as §3

barnyardgrass [6] = test: Test B flooded paddy test; assay type: in vivo, Echinochloa crus-galli; settings: 1000 g ai/ha, visual rating, scale 0 to 100 (0 no effect, 100 complete control), 13 to 15 days
Outline: as §3

rice [7] = test: Test C flooded paddy test; assay type: in vivo, Oryza sativa
Outline: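 Injury scored visually against controls on a 0 (no effect) to 100 (complete control) scale, 12 to 14 days after treatment in greenhouse. Flooded paddy plants treated at 2-leaf stage; postemergence plants at 1- to 4-leaf stage, 2 to 18 cm tall.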

[8] = system: smallflower umbrella sedge; test: Test C flooded paddy test; assay type: in vivo, Cyperus difformis
ducksalad [9] = test: Test C flooded paddy test; assay type: in vivo, Heteranthera limosa
barnyardgrass [10] = test: Test C flooded paddy test; assay type: in vivo, Echinochloa crus-galli
Outline: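 Weeds and wheat were sprayed after emergence, at a height of 2 to 18 cm (1–4 leaves), and paddy barnyardgrass was flooded and treated at two leaves. Assessment took place 12–14 days later in the greenhouse on a 0-to-100 visual control scale. A dash means no result was obtained.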

[11] = 125 g ai/ha, 0 = no effect, 100 = complete control, preemergence
[12] = 500 g ai/ha, visual rating 0-100, 0 no effect, 100 complete control, preemergence
[13] = 62 g ai/ha, scale 0 to 100 (0 no effect, 100 complete control)
[14] = 125 g ai/ha, scale 0 to 100 (0 no effect, 100 complete control)
[15] = 250 g ai/ha, scale of 0 to 100, 0 is no effect, 100 is complete control
[16] = 500 g ai/ha, visual rating after 12 to 14 days, scale 0 to 100 (0 no effect, 100 complete control)

CCOC(=O)c1cccc(NC(=O)c2cn(C(C)(C)C)nc2CC)c1 [Compound 186]
Barnyardgrass plant response rating (0 to 100 scale) (barnyardgrass [1]; [11]): 0
Plant response rating, Barnyardgrass (barnyardgrass [1]; [12]): 10
Barnyardgrass plant response rating (barnyardgrass [1]; 125 g ai/ha): 10
Barnyardgrass plant response rating (barnyardgrass [1]; 500 g ai/ha): 50
Surinam Grass plant response rating (0 to 100 scale) (Surinam grass; [11]): 0
Plant response rating, Surinam Grass (Surinam grass; [12]): 10
Surinam Grass plant response rating (Surinam grass; 125 g ai/ha): 10
Surinam Grass plant response rating (Surinam grass; 500 g ai/ha): 30
Cocklebur plant response rating (0 to 100 scale) (cocklebur; [11]): 0
Plant response rating, Cocklebur (cocklebur; [12]): 0
Cocklebur plant response rating (cocklebur; 125 g ai/ha): 60
Cocklebur plant response rating (cocklebur; 500 g ai/ha): 90
Corn plant response rating (0 to 100 scale) (corn; [11]): 0
Plant response rating, Corn (corn; [12]): 10
Corn plant response rating (corn; 125 g ai/ha): 20
Corn plant response rating (corn; 500 g ai/ha): 20
Crabgrass, Large plant response rating (0 to 100 scale) (large crabgrass; [11]): 0
Plant response rating, Crabgrass, Large (large crabgrass; [12]): 10
Crabgrass, Large plant response rating (large crabgrass; 125 g ai/ha): 10
Crabgrass, Large plant response rating (large crabgrass; 500 g ai/ha): 10
Foxtail, Giant plant response rating (0 to 100 scale) (giant foxtail; [11]): 0
Plant response rating, Foxtail, Giant (giant foxtail; [12]): 10
Foxtail, Giant plant response rating (giant foxtail; 125 g ai/ha): 10
Foxtail, Giant plant response rating (giant foxtail; 500 g ai/ha): 20
Lambsquarters plant response rating (0 to 100 scale) (lambsquarters; [11]): 0
Plant response rating, Lambsquarters (lambsquarters; [12]): 0
Lambsquarters plant response rating (lambsquarters; 125 g ai/ha): 10
Lambsquarters plant response rating (lambsquarters; 500 g ai/ha): 30
Morningglory plant response rating (0 to 100 scale) (morningglory; [11]): 0
Plant response rating, Morningglory (morningglory; [12]): 0
Morningglory plant response rating (morningglory; 125 g ai/ha): 20
Morningglory plant response rating (morningglory; 500 g ai/ha): 30
Pigweed plant response rating (0 to 100 scale) (pigweed; [11]): 0
Plant response rating, Pigweed (pigweed; [12]): 0
Pigweed plant response rating (pigweed; 125 g ai/ha): 60
Pigweed plant response rating (pigweed; 500 g ai/ha): 60
Rice plant response rating (0 to 100 scale) (rice [2]; 125 g ai/ha, 0 = no effect, 100 = complete control): 0
Plant response rating, Rice (rice [2]; 500 g ai/ha, visual rating 0-100, 0 no effect, 100 complete control): 20
Velvetleaf plant response rating (0 to 100 scale) (velvetleaf; [11]): 10
Plant response rating, Velvetleaf (velvetleaf; [12]): 20
Velvetleaf plant response rating (velvetleaf; 125 g ai/ha): 60
Velvetleaf plant response rating (velvetleaf; 500 g ai/ha): 60
Blackgrass plant response rating (blackgrass; 125 g ai/ha): 10
Blackgrass plant response rating (blackgrass; 500 g ai/ha): 30
Wheat plant response rating (wheat; 125 g ai/ha): 10
Wheat plant response rating (wheat; 500 g ai/ha): 20
Oat, Wild plant response rating (wild oat; 125 g ai/ha): 10
Oat, Wild plant response rating (wild oat; 500 g ai/ha): 20
Rice plant response rating (rice [3]): 30
Sedge, Umbrella plant response rating [4]: 90
Ducksalad plant response rating (ducksalad [5]): 90
Barnyardgrass plant response rating (barnyardgrass [6]): 30
Rice plant response rating (rice [7]; [13]): 40
Rice plant response rating (rice [7]; [14]): 55
Rice plant response rating (rice [7]; [15]): 60
Plant response rating, Rice (rice [7]; [16]): 65
Sedge, Umbrella plant response rating [8, 13]: 80
Sedge, Umbrella plant response rating [8, 14]: 80
Sedge, Umbrella plant response rating [8, 15]: 80
Plant response rating, Sedge, Umbrella [8, 16]: 85
Ducksalad plant response rating (ducksalad [9]; [13]): 15
Ducksalad plant response rating (ducksalad [9]; [14]): 40
Ducksalad plant response rating (ducksalad [9]; [15]): 65
Plant response rating, Ducksalad (ducksalad [9]; [16]): 80
Barnyardgrass plant response rating (barnyardgrass [10]; [13]): 20
Barnyardgrass plant response rating (barnyardgrass [10]; 125 g ai/ha, scale of 0 to 100, 0 is no effect, 100 is complete control): 30
Barnyardgrass plant response rating (barnyardgrass [10]; [15]): 45
Plant response rating, Barnyardgrass (barnyardgrass [10]; [16]): 70
